Data taken from PMC5331435, “Metabolism of Zearalenone and Its Major Modified Forms in Pigs” (Toxins, 2017).
Entries after “also recorded” stand apart in the source; their conditions may differ.

Assays:
[1] = Excretion and biological recovery of ZEN and its metabolites in urine and feces of piglets after a single oral bolus (HPLC-MS/MS); assay type: in vivo, pigs; settings: for Hydrolysis in the gastrointestinal tract of pigs: oral application, conclusion from excreta analysis
Experimental: Four castrated male weaning piglets (sow: Landrace × Large White, boar: Pietrain; 33–35 days old, 7.9 ± 0.6 kg) were obtained from a local producer in Lower Austria. Animals were housed separately in metabolic cages in total for 22 days and were allowed to acclimatize for five days before the start of the experiment. They had free access to water and feed was provided twice per day (semi ad libitum). The diet was analyzed for its concentration of ZEN and naturally occurring metabolites thereof.
(§1) Using a repeated measures design, the piglets (n = 4) received water (negative control), ZEN (10 µg/kg b.w.; positive control) and the equimolar dose of ZEN-14-S (12.5 µg/kg b.w.), ZEN-16-Glc (15.1 µg/kg b.w.) and ZEN-14-Glc (15.1 µg/kg b.w.) per gavage (orogastric application) on day 1, 3, 7, 11, and 15 of the experiment, respectively. From the stock solutions containing between 991 (ZEN-14-S) and 1274 (ZEN-14-Glc) µg/mL of the analytes the adequate volumes for the animal experiment were removed and diluted with water for the oral application to obtain 5 µg/mL ZEN and the equimolar concentration of the other analytes in the aqueous stock solutions. Using polyvinyl chloride catheters (diameter 4.7 mm, Ch 14, mpö pfm GesmbH (Klagenfurt, Austria), length was adapted to the size of the esophagus of the piglets), volumes between 16 and 30 mL of the aqueous stock solutions were orally administered to the piglets, considering the piglets’ weight. After the toxin application, 10 mL of water was used to flush the catheter. Urine and feces of each of the piglets were quantitatively collected for the periods 0–24 h and 24–48 h after dosing. Urine was measured volumetrically on site and all excreta samples were stored at −20 °C until lyophilization (feces) or sample preparation and analysis (urine). The general condition of the animals was observed daily during the experiment.
Urine samples were diluted 1:5000 with water and the creatinine content was determined by LC-MS/MS as described earlier. For determination of ZEN, its plant and fungal metabolites and their metabolites in pigs, urine samples were diluted to 0.2 mM creatinine with water and centrifuged prior to HPLC-MS/MS analysis.
Five-hundred milligram aliquots of freeze-dried and thoroughly homogenized feces samples were extracted three times (90/30/30 min) with 5 mL each of ACN/water (50/50, v/v) on a GFL rotary shaker (type 3017, Burgwedel, Germany). After each extraction step, samples were clarified by centrifugation (10 min, 12,500 rpm, GS-15 centrifuge, Beckman Coulter, Indianapolis, IN, USA). Aliquots of the pooled supernatants were centrifuged and measured by HPLC-MS/MS.
Analysis of the feces and urine samples was performed on a 1290 Infinity series UHPLC system (Agilent Technologies, Waldbronn, Germany) coupled to a 6500 QTrap mass spectrometer equipped with an IonDrive TurboV source (Sciex, Foster City, CA, USA). Analyst software version 1.6.2 (Sciex, Foster City, CA, USA) was used for instrument control and data analysis. Chromatographic separation was carried out on a Kinetex Biphenyl column (150 mm × 3 mm, 2.6 µm, Phenomenex, Aschaffenburg, Germany). Eluent A consisted of water/acetic acid (99.9/0.1, v/v), eluent B was composed of ACN/acetic acid (99.9/0.1, v/v). […] At 14 min, 100% was reached which was held until 16.9 min. Afterwards, the column was re-equilibrated at 15% B for 3 min, resulting in a total run time of 20 min. The flow rate was 400 µL/min, the column temperature was 30 °C and the injection volume was 2 µL. Mass spectrometric detection was performed in negative electrospray ionization mode and selected reaction monitoring (SRM) was applied as scan type. The source settings were as follows: source temperature 400 °C, ion spray voltage −4500 V, curtain gas 35 psi (ca. 240 kPa), ion source gas 1 at 55 psi (ca. 379 kPa) and gas 2 at 65 psi (ca. 448 kPa), collision gas (nitrogen) high. […]

[2] = system: human breast cancer cells (MCF7); parameters: method as in PMID 26792714; settings: MCF7 including fetal bovine serum; cited from earlier work
[3] = parameters: method as in PMID 27856298; settings: in vitro; cited from earlier work
[4] = system: human intestinal bacteria; parameters: method as in PMID 23347206; settings: human in vitro model; cited from earlier work
[5] = system: human gut microbiota; settings: cited from earlier work; for Share hydrolyzed after incubation with human gut microbiota: four hours; for Dose converted to unidentified metabolites / not recovered as identified metabolites / Dose detected as the aglycone (ZEN, α-ZEL or β-ZEL): incubation with human gut microbiota
[6] = parameters: method as in PMID 2143610; settings: contaminated feed, one pig; cited from earlier work
[7] = system: human Caco-2/TC7 cells; settings: after six and 24 h; cited from earlier work
[8] = system: human estrogen receptor; parameters: method as in PMID 16751557; settings: cited from earlier work
[9] = oral dose, cited from earlier work; for Recovery in rats: rats (ZEN-14-Glc as ZEN equivalents)
[10] = system: piglets; test: Observation of clinical symptoms in treated piglets; assay type: in vivo, pigs; settings: single orogastric bolus, 10 µg/kg b.w. ZEN or equimolar dose, four piglets
Experimental: For animal welfare considerations, amounts of administered toxins were chosen on the basis of no-observed-effect-levels of 10 µg/kg body weight per day for oral application in pigs. In short, four piglets received a single orogastric bolus of ZEN (10 µg/kg b.w.) and of its plant or fungal metabolites (at equimolar dose), respectively, using a repeated measures design.
as §1, with “Using polyvinyl chloride catheters (diameter 4.7 mm, Ch 14, mpö pfm GesmbH (Klagenfurt, Austria), length was adapted to the size of the esophagus of the piglets), volumes between 16 and 30 mL of the aqueous stock solutions were orally administered to the piglets, considering the piglets’ weight. After the toxin application, 10 mL of water was used to flush the catheter.” left out, “The general condition of the animals was observed daily during the experiment.” left out

[11] = parameters: method as in earlier work; settings: humans, based on studies in pigs; cited from earlier work
[12] = pigs, cited from earlier work
[13] = difference of hydrolyzed and untreated urine; cited from earlier work
[14] = system: uterus weight; parameters: method as in PMID 1827972; settings: intragastric, rats n = 6 per treatment; cited from earlier work
[15] = system: intestinal bacteria from human fecal slurry; parameters: method as in PMID 24386883; settings: cited from earlier work
[16] = after oral administration, piglets
[17] = urine samples after oral administration, piglets

## C[C@H]1CCCC(=O)CCC/C=C/c2cc(O[C@@H]3O[C@H](CO)[C@@H](O)[C@H](O)[C@H]3O)cc(O)c2C(=O)O1 [ZEN-14-Glc, zearalenone-14-O-β-glucoside]
[1]; [16]
  Detection of the intact administered conjugate in urine and feces: none of the glucosides could be detected in urine or feces
[1]; after oral administration, piglets, listed as ZEN-14-O-β-glucoside
  Detection of the intact administered conjugate in urine and feces: neither detected in urine nor in feces
[1]
  Hydrolysis in the gastrointestinal tract of pigs: readily hydrolyzed to ZEN
[1]; listed as ZEN-14-O-β-glucoside
  Hydrolysis in the gastrointestinal tract of pigs: completely hydrolyzed
[2]
  Conversion by MCF7 cells: convert ZEN-14-Glc to ZEN, α-ZEL and β-ZEL
[3]
  Hydrolysis in bovine serum, plasma and whole blood: in vitro hydrolysis of ZEN-14-Glc and release of ZEN
[4]
  Hydrolysis upon incubation with human intestinal bacteria: completely hydrolyzed within 30 min
[5]
  Share hydrolyzed after incubation with human gut microbiota: over 97%
  Dose converted to unidentified metabolites / not recovered as identified metabolites: 50%
  Dose detected as the aglycone (ZEN, α-ZEL or β-ZEL): 40%
[6]
  Metabolization during digestion in the pig: completely metabolized to ZEN and α-ZEL
[7]
  Amount detected in the basolateral compartment: only traces
[8]
  Interaction with the human estrogen receptor: interrupted
[9]
  Recovery in rats: 71%
[9]; rats
  Hydrolysis in the GI tract of rats: partly hydrolyzed in the upper part of the GI tract

## CC1CCCC(O)CCCC=Cc2cc(OC3OC(CO)C(O)C(O)C3O)cc(O)c2C(=O)O1 (stereo not drawn) [α-ZEL-14-Glc]
[5]
  Share hydrolyzed after incubation with human gut microbiota: over 97%
  Dose converted to unidentified metabolites / not recovered as identified metabolites: 40%
  Dose detected as the aglycone (ZEN, α-ZEL or β-ZEL): 60%
[7]
  Amount detected in the basolateral compartment: only traces

## C[C@H]1CCCC(=O)CCC/C=C/c2cc(O)cc(O)c2C(=O)O1 [ZEN, zearalenone]
[10]
  Clinical symptoms during and after treatment: no clinical symptoms were observed
[1]; [16]
  Detection of β-ZEL in urine and feces: neither be detected in urine nor in feces samples
[11]
  Tolerable daily intake (TDI): 0.25 µg/kg b.w.
[12]; 24 h after application
  Mean percentage of ingested ZEN excreted into urine: 28.4%
[12]; intravenous
  Biological recovery of intravenously administered ZEN: 77%
  Part eliminated via urine within 12 h: 44%
[12]; intravenously administered
  Terminal elimination half-life: 2.63 h
[12]; oral, after 48 h
  Biological recovery of orally administered radiolabeled ZEN: 67%
[12]
  Radioactive ZEN excreted in bile that was reabsorbed into the systemic blood system: about 85%
[13]
  Glucuronidation in pig urine: 27%
  Glucuronidation in urine: 23%

## [13CH3][13C@H]1[13CH2][13CH2][13CH2][13C](=O)[13CH2][13CH2][13CH2]/[13CH]=[13CH]/[13c]2[13cH][13c](O)[13cH][13c](O)[13c]2[13C](=O)O1 [^13C-labeled ZEN]
[9]
  Recovery in rats: 74%

## C[C@H]1CCC[C@@H](O)CCC/C=C/c2cc(O)cc(O)c2C(=O)O1 [β-ZEL, β-zearalenol]
[13]
  Glucuronidation in pig urine: 94%
  Glucuronidation in urine: 56%

## C[C@H]1CCCC(=O)CCC/C=C/c2cc(OS(=O)(=O)O)cc(O)c2C(=O)O1 [ZEN-14-S, zearalenone-14-sulfate]
[14]
  Estrogenic activity (effect on uterus weight): partially retained the estrogenic activities of ZEN
[1]; [16]
  Detection of the intact administered conjugate in urine and feces: neither detected in urine nor in feces samples
[1]; after oral administration, piglets, listed as ZEN-14-sulfate
  Detection of the intact administered conjugate in urine and feces: neither detected in urine nor in feces
[1]; after oral application, piglets, listed as ZEN-14-sulfate
  ZEN metabolites in feces: no ZEN metabolites were detected
[1]
  Hydrolysis in the gastrointestinal tract of pigs: rapidly hydrolyzed; also recorded: readily hydrolyzed to ZEN
[1]; listed as ZEN-14-sulfate
  Hydrolysis in the gastrointestinal tract of pigs: completely hydrolyzed
[1]; second sampling period (24–48 h), piglets
  Concentration of ZEN in urine: Only traces
[1]; [17]
  Concentration of α-ZEL in urine: traces
[4]
  Hydrolysis upon incubation with human intestinal bacteria: completely hydrolyzed within 30 min

## C[C@H]1CCC[C@H](O)CCC/C=C/c2cc(O)cc(O)c2C(=O)O1 [α-ZEL, α-zearalenol]
[13]
  Glucuronidation in pig urine: 88%
  Glucuronidation in urine: 75%

## C[C@H]1CCC[C@@H](O)CCC/C=C/c2cc(O[C@@H]3O[C@H](CO)[C@@H](O)[C@H](O)[C@H]3O)cc(O)c2C(=O)O1 [β-ZEL-14-Glc]
[5]
  Share hydrolyzed after incubation with human gut microbiota: over 97%
  Dose converted to unidentified metabolites / not recovered as identified metabolites: 70%
  Dose detected as the aglycone (ZEN, α-ZEL or β-ZEL): 30%

## C[C@H]1CCCC(=O)CCC/C=C/c2cc(O)cc(O[C@@H]3O[C@H](CO)[C@@H](O)[C@H](O)[C@H]3O)c2C(=O)O1 [ZEN-16-Glc, zearalenone-16-O-β-glucoside]
[1]; [16]
  Detection of the intact administered conjugate in urine and feces: none of the glucosides could be detected in urine or feces
[1]; after oral administration, piglets, listed as ZEN-16-O-β-glucoside
  Detection of the intact administered conjugate in urine and feces: neither detected in urine nor in feces
[1]
  Hydrolysis in the gastrointestinal tract of pigs: readily hydrolyzed to ZEN
[1]; listed as ZEN-16-O-β-glucoside
  Hydrolysis in the gastrointestinal tract of pigs: completely hydrolyzed
[1]; [17]
  Concentration of ZEN-14-GlcA in urine: traces
[15]; after two hours
  Residue in the fecal slurry: no residue
[15]; within 30 min
  Conversion by intestinal bacteria from human fecal slurry: nearly completely converted to ZEN within 30 min
